# In patent US20240425479A1, “HALO-SUBSTITUTED AMINO AZA-HETEROARYL COMPOUNDS AS INHIBITORS OF THE HAEMATOPOIETIC PROGENITOR KINASE 1 (HPK1)” (priority 2021, published 2024):
# Molecular target: T1, Recombinant (1-346) HPK1 (h) (Homo sapiens, UniProt Q92918)
# T1 construct: Recombinant (1-346) HPK1 (h) is incubated with 8 mM MOPS pH 7.0
# T1 sequence (Q92918 1-346): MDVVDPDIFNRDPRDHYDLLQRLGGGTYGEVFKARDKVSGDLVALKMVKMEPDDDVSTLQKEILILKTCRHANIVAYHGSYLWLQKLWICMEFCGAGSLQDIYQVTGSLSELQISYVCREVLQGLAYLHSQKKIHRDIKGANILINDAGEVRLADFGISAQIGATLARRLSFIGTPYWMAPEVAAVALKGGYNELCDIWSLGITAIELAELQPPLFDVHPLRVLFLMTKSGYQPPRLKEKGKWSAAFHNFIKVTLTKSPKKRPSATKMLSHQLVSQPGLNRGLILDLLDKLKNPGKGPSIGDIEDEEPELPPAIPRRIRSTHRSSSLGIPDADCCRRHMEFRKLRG
# Test: HPK1 human STE kinase enzymatic radiometric assay
# Assay type: biochemical
# Details: read-out: HPK1 IC50 nM Range
# Summary of the method: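 Compounds in 3-fold, 9-point serial dilution; kinase (residues 1-346) phosphorylates myelin basic protein (0.33 mg/mL) using [gamma-33P]-ATP at pH 7.0 (MOPS, EDTA, Mg acetate) for 40 min, room temperature. Acid-quenched mixture filtered onto P30 mats; incorporated radioactivity read by scintillation counting.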
row,Structure (SMILES),IC50
1,"C[C@@H]1CN(c2ccc(-c3nc(-c4ccc5c(c4)CCNC5=O)c(N)nc3F)cc2)C[C@H](C)N1C [Example I-57, 6-(3-amino-5-fluoro-6-(4-((3R,5S)-3,4,5-trimethylpiperazin-1-yl)phenyl)pyrazin-2-yl)-3,4-dihydroisoquinolin-1(2H)-one]",0.1 to 10 nM
2,"CN(C)[C@@H]1CCOc2ccc(-c3nc(-c4ccc5c(=O)[nH]ccc5c4)c(N)nc3F)cc21 [Example I-286, (R)-6-(3-amino-6-(4-(dimethylamino)chroman-6-yl)-5-fluoropyrazin-2-yl)isoquinolin-1(2H)-one]",11 to 100 nM
3,"CN(C)Cc1cc(-c2nc(-c3cc4c(F)c[nH]c(=O)c4cc3F)c(N)nc2F)ccc1C1CCOCC1 [Example I-143, 6-(3-amino-6-(3-((dimethylamino)methyl)-4-(tetrahydro-2H-pyran-4-yl)phenyl)-5-fluoropyrazin-2-yl)-4,7-difluoroisoquinolin-1(2H)-one]",0.1 to 10 nM
4,"CCN(C)Cc1cc(-c2nc(-c3cc4c(cc3F)C(=O)NCC4)c(N)nc2F)cc(C)c1OC [Example I-303, 6-(3-amino-6-(3-((ethyl(methyl)amino)methyl)-4-methoxy-5-methylphenyl)-5-fluoropyrazin-2-yl)-7-fluoro-3,4-dihydroisoquinolin-1(2H)-one]",0.1 to 10 nM
5,"CN(C)Cc1cc(-c2nc(-c3ccc4c(=O)[nH]cc(F)c4c3)c(N)nc2F)ccc1N1CCOCC1 [Example I-89, 6-(3-amino-6-(3-((dimethylamino)methyl)-4-morpholinophenyl)-5-fluoropyrazin-2-yl)-4-fluoroisoquinolin-1(2H)-one]",0.1 to 10 nM
6,"CC(c1cc(-c2nc(-c3ccc4c(=O)[nH]cc(F)c4c3)c(N)nc2F)ccc1O)N(C)C (stereo not shown) [Example I-302, 6-(3-amino-6-(3-(1-(dimethylamino)ethyl)-4-hydroxyphenyl)-5-fluoropyrazin-2-yl)-4-fluoroisoquinolin-1(2H)-one]",0.1 to 10 nM
7,"Cc1nc2cc(-c3nc(-c4ccc(N5CCN(C6CCC6)CC5)cc4)c(F)nc3N)ccc2c(=O)[nH]1 [Example I-76, 7-(3-amino-6-(4-(4-cyclobutylpiperazin-1-yl)phenyl)-5-fluoropyrazin-2-yl)-2-methylquinazolin-4(3H)-one]",11 to 100 nM
8,"CN1CCN(c2ccc(-c3nc(-c4ccc5c(c4)CCNC5=O)c(N)nc3F)cc2)CC1 [Example I-41, 6-(3-amino-5-fluoro-6-(4-(4-methylpiperazin-1-yl)phenyl)pyrazin-2-yl)-3,4-dihydroisoquinolin-1(2H)-one]",0.1 to 10 nM
9,"CN(C)Cc1cc(-c2nc(-c3ccc4c(=O)[nH]cc(F)c4c3)c(N)nc2F)cc2c1OCCO2 [Example I-269, 6-(3-amino-6-(8-((dimethylamino)methyl)-2,3-dihydrobenzo[b][1,4]dioxin-6-yl)-5-fluoropyrazin-2-yl)-4-fluoroisoquinolin-1(2H)-one]",0.1 to 10 nM
10,"Nc1nc(F)c(-c2ccc(N3CCN(CC4CC4)CC3)cc2)nc1-c1ccc2c(=O)[nH]cc(F)c2c1 [Example I-84, 6-(3-amino-6-(4-(4-(cyclopropylmethyl)piperazin-1-yl)phenyl)-5-fluoropyrazin-2-yl)-4-fluoroisoquinolin-1(2H)-one]",0.1 to 10 nM
11,"Cc1nc2cc(-c3nc(-c4ccc(N5CCN(CC6CC6)CC5)cc4)c(F)nc3N)ccc2c(=O)[nH]1 [Example I-79, 7-(3-amino-6-(4-(4-(cyclopropylmethyl)piperazin-1-yl)phenyl)-5-fluoropyrazin-2-yl)-2-methylquinazolin-4(3H)-one]",101 to 1000 nM
12,"CN(C)[C@@H]1COc2ccc(-c3nc(-c4ccc5c(=O)[nH]cc(F)c5c4)c(N)nc3F)cc21 [Example I-251, (S)-6-(3-amino-6-(3-(dimethylamino)-2,3-dihydrobenzofuran-5-yl)-5-fluoropyrazin-2-yl)-4-fluoroisoquinolin-1(2H)-one]",0.1 to 10 nM
13,"CN(C)Cc1cc(-c2nc(-c3ccc4c(=O)[nH]cc(F)c4c3)c(N)nc2F)ccc1O [Example I-305, 6-(3-amino-6-(3-((dimethylamino)methyl)-4-hydroxyphenyl)-5-fluoropyrazin-2-yl)-4-fluoroisoquinolin-1(2H)-one]",0.1 to 10 nM
14,"Cc1nc2cc(-c3nc(-c4ccc(N5C[C@@H](C)O[C@@H](C)C5)c(CN(C)C)c4)c(F)nc3N)ccc2c(=O)[nH]1 [Example I-194, 7-(3-amino-6-(3-((dimethylamino)methyl)-4-((2R,6S)-2,6-dimethylmorpholino)phenyl)-5-fluoropyrazin-2-yl)-2-methylquinazolin-4(3H)-one]",11 to 100 nM
15,"Cc1c[nH]c(=O)c2ccc(-c3nc(-c4ccc(O)c(C(C)N(C)C)c4)c(F)nc3N)cc12 (stereo not shown) [Example I-304, 6-(3-amino-6-(3-(1-(dimethylamino)ethyl)-4-hydroxyphenyl)-5-fluoropyrazin-2-yl)-4-methylisoquinolin-1(2H)-one]",0.1 to 10 nM
16,"Cc1cc2cc(-c3nc(-c4ccc(N5CCN(CCCC(F)F)CC5)cc4)c(F)nc3N)cc(F)c2c(=O)[nH]1 [Example I-159, 6-(3-amino-6-(4-(4-(4,4-difluorobutyl)piperazin-1-yl)phenyl)-5-fluoropyrazin-2-yl)-8-fluoro-3-methylisoquinolin-1(2H)-one]",0.1 to 10 nM
17,"CCN1CCN(c2ccc(-c3nc(-c4cc5c(cc4F)C(=O)NCC5)c(N)nc3F)cc2)CC1 [Example I-56, 6-(3-amino-6-(4-(4-ethylpiperazin-1-yl)phenyl)-5-fluoropyrazin-2-yl)-7-fluoro-3,4-dihydroisoquinolin-1(2H)-one]",0.1 to 10 nM
18,"Cc1c[nH]c(=O)c2c(F)cc(-c3nc(-c4ccc(N5CCN(C(C)C)CC5)cc4)c(F)nc3N)cc12 [Example I-166, 6-(3-amino-5-fluoro-6-(4-(4-isopropylpiperazin-1-yl)phenyl)pyrazin-2-yl)-8-fluoro-4-methylisoquinolin-1(2H)-one]",0.1 to 10 nM
19,"Nc1nc(F)c(-c2ccc(N3CCOCC3)c(CN3CCCCC3)c2)nc1-c1cc2c(cc1F)C(=O)NCC2 [Example I-186, 6-(3-amino-5-fluoro-6-(4-morpholino-3-(piperidin-1-ylmethyl)phenyl)pyrazin-2-yl)-7-fluoro-3,4-dihydroisoquinolin-1(2H)-one]",11 to 100 nM
20,"Cc1c[nH]c(=O)c2ccc(-c3nc(-c4cnc(N5CCOCC5)c(CN(C)C)c4)c(F)nc3N)cc12 [Example I-236, 6-(3-amino-6-(5-((dimethylamino)methyl)-6-morpholinopyridin-3-yl)-5-fluoropyrazin-2-yl)-4-methylisoquinolin-1(2H)-one]",11 to 100 nM
21,"Nc1nc(F)c(-c2ccc(N3CCN(CCCC(F)F)CC3)cc2)nc1-c1ccc2c(=O)[nH]ccc2c1 [Example I-70, 6-(3-amino-6-(4-(4-(4,4-difluorobutyl)piperazin-1-yl)phenyl)-5-fluoropyrazin-2-yl)isoquinolin-1(2H)-one]",0.1 to 10 nM
22,"Nc1nc(F)c(-c2ccc(OC3CCOCC3)c(CN3CCC3)c2)nc1-c1cc(F)c2c(c1)CCNC2=O [Example I-210, 6-(3-amino-6-(3-(azetidin-1-ylmethyl)-4-((tetrahydro-2H-pyran-4-yl)oxy)phenyl)-5-fluoropyrazin-2-yl)-8-fluoro-3,4-dihydroisoquinolin-1(2H)-one]",11 to 100 nM
23,"CN(C)Cc1cc(-c2nc(-c3ccc4c(c3)CCNC4=O)c(N)nc2F)ccc1OCC1CCOCC1 [Example I-178, 6-(3-amino-6-(3-((dimethylamino)methyl)-4-((tetrahydro-2H-pyran-4-yl)methoxy)phenyl)-5-fluoropyrazin-2-yl)-3,4-dihydroisoquinolin-1(2H)-one]",0.1 to 10 nM
24,"Nc1nc(F)c(-c2ccc(N3CCN(C4COC4)CC3)cc2)nc1-c1cc2c(cc1F)C(=O)NCC2 [Example I-45, 6-(3-amino-5-fluoro-6-(4-(4-(oxetan-3-yl)piperazin-1-yl)phenyl)pyrazin-2-yl)-7-fluoro-3,4-dihydroisoquinolin-1(2H)-one]",11 to 100 nM
25,"C[C@@H]1CN(c2ccc(-c3nc(-c4ccc5c(=O)[nH]cc(F)c5c4)c(N)nc3F)cc2CN(C)C)C[C@H](C)O1 [Example I-230, 6-(3-amino-6-(3-((dimethylamino)methyl)-4-((2R,6S)-2,6-dimethylmorpholino)phenyl)-5-fluoropyrazin-2-yl)-4-fluoroisoquinolin-1(2H)-one]",0.1 to 10 nM
26,"CN(C)Cc1cccc(-c2nc(-c3cc(F)c4c(c3)CCNC4=O)c(N)nc2F)c1 [Example I-279, 6-(3-amino-6-(3-((dimethylamino)methyl)phenyl)-5-fluoropyrazin-2-yl)-8-fluoro-3,4-dihydroisoquinolin-1(2H)-one]",11 to 100 nM
27,"CN(C)[C@@H]1COc2ccc(-c3nc(-c4cc(F)c5c(c4)CCNC5=O)c(N)nc3F)cc21 [Example I-254, (S)-6-(3-amino-6-(3-(dimethylamino)-2,3-dihydrobenzofuran-5-yl)-5-fluoropyrazin-2-yl)-8-fluoro-3,4-dihydroisoquinolin-1(2H)-one]",11 to 100 nM
28,"CN(C)Cc1cc(-c2nc(-c3cc(F)c4c(c3)CCNC4=O)c(N)nc2F)ccc1OCC1CCOCC1 [Example I-180, 6-(3-amino-6-(3-((dimethylamino)methyl)-4-((tetrahydro-2H-pyran-4-yl)methoxy)phenyl)-5-fluoropyrazin-2-yl)-8-fluoro-3,4-dihydroisoquinolin-1(2H)-one]",0.1 to 10 nM
